According to publication PMC6934184, “Selective DNA-PKcs inhibition extends the therapeutic index of localized radiotherapy and chemotherapy” (The Journal of Clinical Investigation, 2019):

Biological target: T1, BMPR2 (Homo sapiens, UniProt Q13873)
T1 construct: purchased Thermo Fisher Scientific (Life Technologies) SelectScreen
Assay: SelectScreen LanthaScreen
Type: binding
Settings: 1 µM
Method in brief: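 NU5455 was profiled across the SelectScreen Broad panel of kinase activity and binding assays. Z'LYTE reactions such as CSF1R ran at apparent Km ATP, while the Adapta CAMK1 assay used ATP listed as 10. Values are given as percent.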

T1 sequence (Q13873 27-1038): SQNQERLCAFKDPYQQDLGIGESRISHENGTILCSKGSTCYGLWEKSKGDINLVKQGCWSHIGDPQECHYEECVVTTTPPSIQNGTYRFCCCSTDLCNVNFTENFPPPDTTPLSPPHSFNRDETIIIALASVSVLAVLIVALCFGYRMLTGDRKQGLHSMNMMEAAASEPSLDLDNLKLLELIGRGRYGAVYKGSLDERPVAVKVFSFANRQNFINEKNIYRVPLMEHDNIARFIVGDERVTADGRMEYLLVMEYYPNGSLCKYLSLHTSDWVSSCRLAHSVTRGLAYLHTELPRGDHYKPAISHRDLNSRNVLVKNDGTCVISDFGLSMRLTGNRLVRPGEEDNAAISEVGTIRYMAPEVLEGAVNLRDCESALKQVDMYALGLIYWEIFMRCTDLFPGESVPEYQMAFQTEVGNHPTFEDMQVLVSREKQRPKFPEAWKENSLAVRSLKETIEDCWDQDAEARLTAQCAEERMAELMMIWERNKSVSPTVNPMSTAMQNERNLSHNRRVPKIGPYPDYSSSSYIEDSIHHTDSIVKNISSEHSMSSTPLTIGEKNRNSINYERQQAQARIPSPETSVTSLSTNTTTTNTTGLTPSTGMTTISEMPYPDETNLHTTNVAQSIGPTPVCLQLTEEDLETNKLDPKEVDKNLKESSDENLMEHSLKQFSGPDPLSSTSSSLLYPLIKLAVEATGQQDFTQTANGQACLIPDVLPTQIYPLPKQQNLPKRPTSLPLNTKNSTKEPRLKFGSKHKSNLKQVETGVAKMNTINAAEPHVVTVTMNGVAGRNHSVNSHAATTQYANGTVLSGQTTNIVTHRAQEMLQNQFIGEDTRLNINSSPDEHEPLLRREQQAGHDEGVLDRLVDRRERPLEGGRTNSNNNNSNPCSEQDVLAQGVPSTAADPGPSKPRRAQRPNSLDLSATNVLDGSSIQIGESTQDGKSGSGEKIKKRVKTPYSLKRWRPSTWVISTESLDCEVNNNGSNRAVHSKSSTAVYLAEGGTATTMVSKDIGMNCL

CN(C(=O)CN1CCOCC1)c1ccc2sc3c(-c4cccc5c(=O)cc(N6CC7CCC(C6)O7)oc45)cccc3c2c1 [NU5455]
% displacement: -2.5%
